# Data from patent US9616006B2, “Methods and compositions for treating dermatological diseases and conditions” (priority 2007, dated 2017).
# Legend:
# Format in all cases: cell-based
# [1] = tested on: human melanocyte cultures; test: Pigment in human melanocyte cultures; details: treated for 9 days
# tyrosinase [2] = test: DOPA oxidase assay of cell extracts from treated human melanocytes; details: extracts of human melanocytes treated for 9 days
# Protocol: Cell lysates were prepared from human melanocytes. The amount of tyrosinase in these cell lysates was determined by DOPA oxidase assay.
# (§1) FIGS. 14-17 show the skin-lightening effects of topically-applied formulations of isoeugenol and its ester isoeugenol acetate (a.k.a. isoeugenyl acetate) in the treatment of hyperpigmented areas in the skin, wherein a reduction of melanin pigment in the skin is caused by the topical application of the formulations. In addition to blocking a post-tyrosinase step in melanin synthesis, IE and IE acetate can inhibit the expression of the tyrosinase protein in human melanocytes. […] If the cell extracts contain tyrosinase when an aliquot of extract is placed in a tube containing L-DOPA (a tyrosinase substrate) in buffer, the enzyme will convert the DOPA to melanin. The melanin will appear brownish-black in the assay tube. If IE or IE-acetate has inhibited tyrosinase synthesis in melanocytes, then the extracts from these cells will contain no enzyme and will not be able to produce melanin from DOPA in the assay tube. […] In this assay, cell extracts from human melanocytes either left untreated or treated with 200 micromolar of either IE or isoeugenol acetate for 9 days are run on SDS polyacrylamide electrophoresis gels to separate tyrosinase from other proteins. The tyrosinase in the gel is then blotted to a membrane and the tyrosinase detected by staining with a specific anti-tyrosinase antibody. The antibody-bound tyrosinase is then visualized by chemiluminescence.
# tyrosinase [3] = test: Western immunoblot of tyrosinase abundance in human melanocyte extracts
# Source text: as §1
structure (smiles),measurement,setting,value
CC=Cc1ccc(OC(C)=O)c(OC)c1 [isoeugenol acetate],pigment in human melanocyte cultures,[1],loss of pigment
same,tyrosinase activity / melanin made from L-DOPA by cell extracts,tyrosinase [2]; listed as IE-acetate,very little melanin was made
same,tyrosinase activity / melanin made from L-DOPA by cell extracts,tyrosinase [2]; listed as TH-213,absence of tyrosinase activity
same,tyrosinase abundance (relative densitometric units),"tyrosinase [3]; human melanocyte extracts, 200 μM, 9 days, control approximately 7.25 RDU",~3.75 RDU
same,tyrosinase present (western immunoblot),tyrosinase [3]; human melanocytes treated with 200 micromolar for 9 days,almost no detectable tyrosinase
